Laboratory results taken from ChEMBL document CHEMBL1201862, “PubChem BioAssay data set” (2004).
Active and inactive are the calls of the source.

Experiments:
[1] = target: T1, Cytochrome P450 1A2 (Homo sapiens, UniProt P05177);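 further: PubChem cytochrome P450 panel assay, CYP1A2 panel member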
T1 sequence (P05177 whole entry): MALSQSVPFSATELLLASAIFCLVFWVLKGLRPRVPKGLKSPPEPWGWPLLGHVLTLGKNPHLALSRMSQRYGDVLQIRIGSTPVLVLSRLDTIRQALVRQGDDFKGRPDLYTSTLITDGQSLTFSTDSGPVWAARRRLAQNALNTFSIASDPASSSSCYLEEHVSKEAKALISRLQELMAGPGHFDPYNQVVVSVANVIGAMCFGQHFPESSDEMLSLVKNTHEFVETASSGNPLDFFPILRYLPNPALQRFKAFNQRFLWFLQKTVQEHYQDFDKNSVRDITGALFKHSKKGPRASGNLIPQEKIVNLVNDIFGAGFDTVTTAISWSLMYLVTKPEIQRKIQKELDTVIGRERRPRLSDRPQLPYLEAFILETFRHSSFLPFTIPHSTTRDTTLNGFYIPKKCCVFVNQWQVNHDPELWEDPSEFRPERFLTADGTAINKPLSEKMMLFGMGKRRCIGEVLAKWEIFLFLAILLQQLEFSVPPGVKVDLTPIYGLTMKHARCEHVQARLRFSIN

[2] = target: Cytochrome P450 2C9 (Homo sapiens, UniProt P11712)
Sequence of Cytochrome P450 2C9 (P11712 whole entry): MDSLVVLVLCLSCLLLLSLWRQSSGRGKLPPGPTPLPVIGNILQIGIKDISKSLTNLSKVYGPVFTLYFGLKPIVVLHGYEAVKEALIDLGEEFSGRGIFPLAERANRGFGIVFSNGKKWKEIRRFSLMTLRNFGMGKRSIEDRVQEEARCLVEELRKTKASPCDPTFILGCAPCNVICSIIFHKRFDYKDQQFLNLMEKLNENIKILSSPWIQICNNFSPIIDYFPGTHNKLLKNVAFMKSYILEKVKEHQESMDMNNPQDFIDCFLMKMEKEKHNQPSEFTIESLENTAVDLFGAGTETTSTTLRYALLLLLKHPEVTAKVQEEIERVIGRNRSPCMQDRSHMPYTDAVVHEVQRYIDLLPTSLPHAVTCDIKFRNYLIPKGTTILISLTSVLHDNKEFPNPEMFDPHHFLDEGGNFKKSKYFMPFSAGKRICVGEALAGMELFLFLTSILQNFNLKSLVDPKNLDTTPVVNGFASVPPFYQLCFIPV

[3] = NIH-3T3 fibroblast cytotoxicity, dose response, cytotoxicity control, cell-based, fluorescence, Alamar Blue, secondary assay (AID 2327); assay type: functional;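 further: NIH-3T3 mouse fibroblasts cultured with fluconazole at 8 µg/mL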
[4] = C. albicans growth with fluconazole, confirmation, fluorescence, retest (AID 2467); assay type: functional, cell-based
[5] = target: Cytochrome P450 2C19 (Homo sapiens, UniProt P33261); assay: Cytochrome panel assay with activity outcomes. Panel member name: p450-cyp2c19 Compounds with AC50 equal or less than 10 uM are considered active; assay type: functional
Sequence of Cytochrome P450 2C19 (P33261 whole entry): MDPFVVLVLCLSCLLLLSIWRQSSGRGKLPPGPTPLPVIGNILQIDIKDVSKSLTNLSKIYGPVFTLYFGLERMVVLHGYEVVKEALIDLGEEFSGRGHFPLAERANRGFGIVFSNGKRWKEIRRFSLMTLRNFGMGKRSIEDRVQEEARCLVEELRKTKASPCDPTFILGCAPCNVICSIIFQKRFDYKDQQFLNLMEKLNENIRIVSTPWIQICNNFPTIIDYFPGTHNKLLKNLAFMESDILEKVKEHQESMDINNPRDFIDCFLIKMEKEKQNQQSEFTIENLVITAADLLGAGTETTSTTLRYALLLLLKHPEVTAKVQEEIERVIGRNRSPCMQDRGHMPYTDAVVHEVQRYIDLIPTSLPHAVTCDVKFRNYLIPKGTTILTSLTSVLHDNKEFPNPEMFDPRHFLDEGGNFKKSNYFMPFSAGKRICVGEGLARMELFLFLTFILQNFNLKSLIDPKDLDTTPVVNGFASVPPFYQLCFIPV

[6] = system: Streptococcus sp. 'group A'; assay: growth inhibition of control SK(-) GAS strain, dose response, counter-screen for streptokinase expression inhibitor project, luminescence, kanamycin, BacTiterGlo, confirmation (AID 1900); assay type: functional, organism-based
[7] = target: T2, Streptokinase A (Streptococcus pyogenes serotype M1, UniProt P10520); assay: S. pyogenes streptokinase expression inhibitors, potency, dose response, plasminogen activation absorbance, OD405 (AID 1914); assay type: functional, Streptococcus pyogenes M1 GAS;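 further: secreted streptokinase activity via plasminogen activation per viability signal from cell pellet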
T2 sequence (P10520 whole entry): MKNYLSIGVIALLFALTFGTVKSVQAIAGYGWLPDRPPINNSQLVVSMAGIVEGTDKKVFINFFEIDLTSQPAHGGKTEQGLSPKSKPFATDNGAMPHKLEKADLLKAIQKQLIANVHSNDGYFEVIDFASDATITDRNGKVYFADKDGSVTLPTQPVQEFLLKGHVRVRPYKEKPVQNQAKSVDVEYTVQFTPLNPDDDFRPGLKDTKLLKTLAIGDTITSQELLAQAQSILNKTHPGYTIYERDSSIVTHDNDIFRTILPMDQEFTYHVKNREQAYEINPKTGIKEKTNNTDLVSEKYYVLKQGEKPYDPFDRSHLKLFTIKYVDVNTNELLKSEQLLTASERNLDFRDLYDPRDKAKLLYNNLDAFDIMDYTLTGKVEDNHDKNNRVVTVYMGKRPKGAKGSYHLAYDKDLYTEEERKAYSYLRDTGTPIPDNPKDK

[8] = system: Streptococcus; assay: Group A Streptococcus viability loss, dose response, counter-screen for streptokinase expression inhibitor project, luminescence, BacTiterGlo (AID 1915); assay type: functional, organism-based;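 further: potency for reduction of bacterial viability or growth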
[9] = target: Cytochrome P450 3A4 (Homo sapiens, UniProt P08684);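 further: CYP3A4 tested as one member of a cytochrome P450 panel screen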
Sequence of Cytochrome P450 3A4 (P08684 whole entry, the tested form may be a part): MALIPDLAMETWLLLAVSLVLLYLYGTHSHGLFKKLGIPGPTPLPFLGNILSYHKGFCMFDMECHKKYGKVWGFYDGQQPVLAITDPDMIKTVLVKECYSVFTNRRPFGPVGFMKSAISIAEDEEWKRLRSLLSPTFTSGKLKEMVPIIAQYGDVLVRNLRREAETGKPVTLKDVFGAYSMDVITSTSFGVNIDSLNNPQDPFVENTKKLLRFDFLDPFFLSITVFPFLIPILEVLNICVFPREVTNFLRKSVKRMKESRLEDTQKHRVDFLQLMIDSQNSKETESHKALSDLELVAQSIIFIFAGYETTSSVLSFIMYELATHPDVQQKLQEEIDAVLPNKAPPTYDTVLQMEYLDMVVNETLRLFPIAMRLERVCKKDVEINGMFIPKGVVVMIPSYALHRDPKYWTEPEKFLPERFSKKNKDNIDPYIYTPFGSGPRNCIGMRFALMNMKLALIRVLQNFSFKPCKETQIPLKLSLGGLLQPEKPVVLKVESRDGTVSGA

[10] = target: T3, RNA-binding protein pos-1 (Caenorhabditis elegans, UniProt G5EF15); assay: inhibitors of POS-1/mex-3 RNA binding, dose response, biochemical, fluorescence polarization (AID 1964);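 further: purified POS-1 fused to maltose binding protein made in E. coli; potency of compounds blocking POS-1 binding to fluorescent RNA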
T3 sequence (G5EF15 whole entry): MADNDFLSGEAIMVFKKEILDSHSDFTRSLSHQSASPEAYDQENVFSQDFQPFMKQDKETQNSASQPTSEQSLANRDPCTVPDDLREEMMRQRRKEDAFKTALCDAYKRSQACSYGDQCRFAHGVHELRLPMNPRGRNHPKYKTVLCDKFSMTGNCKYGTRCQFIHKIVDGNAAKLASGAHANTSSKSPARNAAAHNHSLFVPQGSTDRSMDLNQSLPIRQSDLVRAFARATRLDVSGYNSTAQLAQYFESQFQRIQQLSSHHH

[11] = target: T4, Zinc finger protein mex-5 (Caenorhabditis elegans, UniProt Q9XUB2); assay: MEX-5/TCR-2 RNA interaction inhibitors, dose response, biochemical, C. elegans, fluorescence polarization (AID 1960)
T4 sequence (Q9XUB2 whole entry): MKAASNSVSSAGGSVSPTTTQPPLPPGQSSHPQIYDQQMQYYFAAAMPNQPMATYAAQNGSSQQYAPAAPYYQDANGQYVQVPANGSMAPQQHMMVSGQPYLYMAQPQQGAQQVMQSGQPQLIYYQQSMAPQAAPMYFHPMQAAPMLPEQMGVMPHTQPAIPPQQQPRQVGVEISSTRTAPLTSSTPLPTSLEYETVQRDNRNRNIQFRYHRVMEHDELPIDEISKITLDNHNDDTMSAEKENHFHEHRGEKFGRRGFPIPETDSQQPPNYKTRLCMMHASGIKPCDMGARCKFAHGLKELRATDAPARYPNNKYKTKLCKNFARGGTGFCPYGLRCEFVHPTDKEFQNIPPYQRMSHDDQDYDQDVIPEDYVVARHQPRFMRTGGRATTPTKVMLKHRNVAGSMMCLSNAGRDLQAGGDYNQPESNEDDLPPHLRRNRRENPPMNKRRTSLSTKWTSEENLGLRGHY

[12] = target: T5, Corticotropin-releasing factor receptor 2/Corticotropin-releasing factor-binding protein (Homo sapiens, UniProt P24387+Q13324); assay: activators of CRF receptor 2 with binding protein – uHTS hits, confirmation (AID 602473); assay type: functional; conditions: read-out: EC50_Mean
T5 sequence (Q13324 whole entry): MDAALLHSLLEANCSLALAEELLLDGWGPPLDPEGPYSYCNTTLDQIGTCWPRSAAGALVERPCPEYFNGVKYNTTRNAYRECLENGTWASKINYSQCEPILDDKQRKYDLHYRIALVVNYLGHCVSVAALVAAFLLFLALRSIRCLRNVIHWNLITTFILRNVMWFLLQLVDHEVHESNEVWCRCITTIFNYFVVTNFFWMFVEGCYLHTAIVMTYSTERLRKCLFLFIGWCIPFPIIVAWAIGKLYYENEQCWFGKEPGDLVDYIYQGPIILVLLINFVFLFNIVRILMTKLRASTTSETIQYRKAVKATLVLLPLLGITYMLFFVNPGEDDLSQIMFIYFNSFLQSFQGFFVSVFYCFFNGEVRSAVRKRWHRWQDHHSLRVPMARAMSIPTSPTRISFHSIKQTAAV
T5 sequence (P24387 whole entry): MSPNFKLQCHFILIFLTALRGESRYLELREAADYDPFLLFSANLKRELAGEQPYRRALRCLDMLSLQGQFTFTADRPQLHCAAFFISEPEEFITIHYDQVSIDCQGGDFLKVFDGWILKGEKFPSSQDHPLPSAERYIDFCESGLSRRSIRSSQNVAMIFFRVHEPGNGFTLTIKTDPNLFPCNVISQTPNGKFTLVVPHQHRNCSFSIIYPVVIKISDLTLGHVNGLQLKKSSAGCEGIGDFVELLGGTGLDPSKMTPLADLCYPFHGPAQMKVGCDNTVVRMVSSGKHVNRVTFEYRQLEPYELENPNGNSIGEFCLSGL

For `CCOc1ccc(/C=C2\C(=O)c3ccccc3OC2c2ccccc2)cc1` (centres undefined), the AC50 [1] was 12.6 µM (inconclusive) and the AC50 [2] was 10 µM (inconclusive).

For `CN1CCN(C(=O)c2cnn(-c3ccccc3)c2NC(=O)c2ccccc2)CC1`, the EC50 [3] was > 150 µM (inactive) and the EC50 [4] was > 38 µM (not active).

In the case of `O=C(NCc1ccccc1)C(c1ccncc1)N(C(=O)c1csnn1)C1CC1` (centres undefined), the AC50 [2] is reported as 1.78 µM (inconclusive).

In the case of `Cc1oc(-c2cccs2)[n+]([O-])c1C`, the AC50 [1] is reported as 25.1 µM (inconclusive).

In the case of `CCOC(=O)C1=C(N)Oc2ccc(Br)cc2[C@@H]1[C@@H](C#N)C(=O)OCC`, the AC50 ([5]; read-out: AC50) is reported as 25.1 µM (inconclusive).

With `Cc1ccccc1C(C(=O)NC1CCCC1)N(C(=O)Cc1cccs1)c1ccc2c(c1)OCCO2` (centres undefined) the AC50 [2] was 0.891 µM (inconclusive).

With `N#CCCn1c(=O)c(-c2cc(F)cc(F)c2)nc2cnc(Nc3ccccc3)nc21` the AC50 [1] was 3.16 µM (inconclusive).

With `Cc1ccccc1-c1cncnc1N1CCN(C)CC1` the AC50 ([5]; read-out: AC50) was 39.8 µM (inconclusive) and the AC50 [1] was 15.8 µM (inconclusive).

With `CCCSc1cc(N2CCCC2)nc(-c2ccccc2)n1` the EC50 [6] was 35 µM (active), the EC50 [7] was > 150 µM (not active) and the EC50 [8] was > 150 µM (not active). For the same compound, the AC50 ([5]; read-out: AC50) was 39.8 µM (inconclusive) and the AC50 [2] was 2 µM (inconclusive).

With `COc1ccc(CNC(=O)CN(CC2CCCO2)C(=O)CNS(=O)(=O)c2ccccc2)cc1` (centres undefined) the AC50 [9] was 3.98 µM (inconclusive) and the AC50 [2] was 22.4 µM (inconclusive).

In the case of `CN(C)N1C(N)=C(C#N)C(c2cccnc2)C2=C1CC(C)(C)CC2=O` (centres undefined), the AC50 [2] is reported as 0.0224 µM (inconclusive).

For `CC(C)(C)NC(=O)NC(=O)CN1CCCc2ccccc21`, the EC50 [3] was > 150 µM (inactive) and the EC50 [4] was > 38 µM (not active).

For `O=C1CC(N2CCN(C(c3ccccc3)c3ccccc3)CC2)C(=O)N1Cc1ccc(N2CCCC2=O)cc1` (centres undefined), the AC50 ([5]; read-out: AC50) was 5.01 µM (inconclusive) and the AC50 [9] was 22.4 µM (inconclusive).

For `Cn1cnc([N+](=O)[O-])c1SCC(=O)O`, the AC50 [5] was “inconclusive”.

For `CC(=O)N1CCC2(CC1)CN(C(=O)Nc1cccc(C#N)c1)C2`, the AC50 [1] was 12.6 µM (inconclusive).

For `CC(C)c1nc(N2CCN(C(=O)c3ccco3)CC2)c2c3c(sc2n1)CCCC3`, the EC50 [3] was > 150 µM (inactive) and the EC50 [4] was > 38 µM (not active).

In the case of `COc1cccc(C(C(=O)NC2CCCC2)N(C(=O)c2ccco2)c2ccc(-n3cnnn3)c(C)c2)c1OC` (centres undefined), the EC50 [3] is reported as > 150 µM (inconclusive) and the EC50 [4] is reported as > 38 µM (not active).

With `Cc1ccc(N/N=C2\COC(C)(C)CC2=O)cc1` the EC50 [3] was > 160 µM (inactive) and the EC50 [4] was > 38 µM (not active).

With `CCCc1nnc(NC(=O)c2cccs2)s1` the AC50 ([5]; read-out: AC50) was 25.1 µM (inconclusive) and the AC50 [2] was 12.6 µM (inconclusive).

In the case of `CC(C)(C)COS(=O)OCC(C)(C)C`, the AC50 [5] is reported as “inconclusive”.

With `COc1ccc(-n2c(=O)c(-c3ccc(Cl)cc3)nc3cncnc32)cc1` the AC50 [1] was 5.01 µM (inconclusive).

With `Cc1cc(C(=O)CSC(=S)SC(C)(C)C)ccc1Cl` the AC50 [9] was 3.16 µM (inconclusive) and the AC50 [2] was 5.01 µM (inconclusive).

With `CCCCOc1ccccc1N` the AC50 [1] was 39.8 µM (inconclusive) and the AC50 [2] was 39.8 µM (inconclusive).

With `CCOc1cccc(CNCCNC(=O)c2nonc2N)c1` the AC50 [1] was 39.8 µM (inconclusive) and the AC50 [9] was 5.01 µM (inconclusive).

For `O=c1cnc2cnc(Oc3ccccc3)nc2n1C1CC1`, the AC50 ([5]; read-out: AC50) was 39.8 µM (inconclusive).

With `Cc1ccc2c[nH]nc2c1NC(=S)NC(=O)c1ccccc1` the AC50 ([5]; read-out: AC50) was 11.2 µM (inconclusive).

For `N#Cc1c(NC(=O)CCC(=O)O)ccc2ccccc12`, the AC50 [5] was “inconclusive”.

In the case of `Nc1nc(SCc2ccccc2)c2ncn(Cc3ccccc3)c2n1`, the AC50 [1] is reported as 0.251 µM (inconclusive), the AC50 [9] is reported as 3.98 µM (inconclusive) and the AC50 [2] is reported as 3.16 µM (inconclusive).

For `COc1cccc(C2C(C(=O)c3ccc(C)cc3)=C(O)C(=O)N2Cc2ccco2)c1` (centres undefined), the EC50 [3] was > 160 µM (inconclusive) and the EC50 [4] was 3.1 µM (active).

For `COc1ccccc1NC(=O)c1sc2nc(Cc3ccccc3)cc(C(F)(F)F)c2c1N`, the EC50 [10] was 9.55 µM (inconclusive), the EC50 [11] was 16.2 µM (active) and the EC50 [12] was 6.15 µM (active).

In the case of `COc1cc(-c2nnc(COC(=O)c3c4c(nc5ccccc35)CCCC4)o2)cc(OC)c1OC`, the AC50 [1] is reported as 14.1 µM (inconclusive).

In the case of `CCC[C@@H]1C[C@@]1(CCC)C(NC(=O)c1cccs1)c1ccc(Cl)cc1` (some centres undefined), the AC50 [1] is reported as 10 µM (inconclusive) and the AC50 [2] is reported as 5.01 µM (inconclusive).

In the case of `N#Cc1c2c(c(-n3cnc4ccccc43)n3c1nc1ccccc13)CCC2`, the AC50 [1] is reported as 25.1 µM (inconclusive), the AC50 [9] is reported as 3.16 µM (inconclusive) and the AC50 [2] is reported as 10 µM (inconclusive).

For `CN1CCc2nc(N)nc(-c3nc(N)nc4c3CN(C)CC4)c2C1`, the AC50 [5] was “inconclusive”.
